According to PMC8964833, “Identification of cell wall synthesis inhibitors active against Mycobacterium tuberculosis by competitive activity-based protein profiling” (Cell Chemical Biology, 2022):
Where two headings read alike, the source gives them in different places.

Assays:
Pks13 [1] = target: T1, Pks13 (Mycobacterium tuberculosis, UniProt I6X8D2); experiment: cell-based; conditions: Mycobacterium tuberculosis H37Rv, read-out: % inhibition
Pks13 [2] = target: T1, Pks13; experiment: cell-based; conditions: Mycobacterium tuberculosis H37Rv, read-out: % inhibition; remark: listed apart in the source

T1 sequence (I6X8D2 whole entry, looked up): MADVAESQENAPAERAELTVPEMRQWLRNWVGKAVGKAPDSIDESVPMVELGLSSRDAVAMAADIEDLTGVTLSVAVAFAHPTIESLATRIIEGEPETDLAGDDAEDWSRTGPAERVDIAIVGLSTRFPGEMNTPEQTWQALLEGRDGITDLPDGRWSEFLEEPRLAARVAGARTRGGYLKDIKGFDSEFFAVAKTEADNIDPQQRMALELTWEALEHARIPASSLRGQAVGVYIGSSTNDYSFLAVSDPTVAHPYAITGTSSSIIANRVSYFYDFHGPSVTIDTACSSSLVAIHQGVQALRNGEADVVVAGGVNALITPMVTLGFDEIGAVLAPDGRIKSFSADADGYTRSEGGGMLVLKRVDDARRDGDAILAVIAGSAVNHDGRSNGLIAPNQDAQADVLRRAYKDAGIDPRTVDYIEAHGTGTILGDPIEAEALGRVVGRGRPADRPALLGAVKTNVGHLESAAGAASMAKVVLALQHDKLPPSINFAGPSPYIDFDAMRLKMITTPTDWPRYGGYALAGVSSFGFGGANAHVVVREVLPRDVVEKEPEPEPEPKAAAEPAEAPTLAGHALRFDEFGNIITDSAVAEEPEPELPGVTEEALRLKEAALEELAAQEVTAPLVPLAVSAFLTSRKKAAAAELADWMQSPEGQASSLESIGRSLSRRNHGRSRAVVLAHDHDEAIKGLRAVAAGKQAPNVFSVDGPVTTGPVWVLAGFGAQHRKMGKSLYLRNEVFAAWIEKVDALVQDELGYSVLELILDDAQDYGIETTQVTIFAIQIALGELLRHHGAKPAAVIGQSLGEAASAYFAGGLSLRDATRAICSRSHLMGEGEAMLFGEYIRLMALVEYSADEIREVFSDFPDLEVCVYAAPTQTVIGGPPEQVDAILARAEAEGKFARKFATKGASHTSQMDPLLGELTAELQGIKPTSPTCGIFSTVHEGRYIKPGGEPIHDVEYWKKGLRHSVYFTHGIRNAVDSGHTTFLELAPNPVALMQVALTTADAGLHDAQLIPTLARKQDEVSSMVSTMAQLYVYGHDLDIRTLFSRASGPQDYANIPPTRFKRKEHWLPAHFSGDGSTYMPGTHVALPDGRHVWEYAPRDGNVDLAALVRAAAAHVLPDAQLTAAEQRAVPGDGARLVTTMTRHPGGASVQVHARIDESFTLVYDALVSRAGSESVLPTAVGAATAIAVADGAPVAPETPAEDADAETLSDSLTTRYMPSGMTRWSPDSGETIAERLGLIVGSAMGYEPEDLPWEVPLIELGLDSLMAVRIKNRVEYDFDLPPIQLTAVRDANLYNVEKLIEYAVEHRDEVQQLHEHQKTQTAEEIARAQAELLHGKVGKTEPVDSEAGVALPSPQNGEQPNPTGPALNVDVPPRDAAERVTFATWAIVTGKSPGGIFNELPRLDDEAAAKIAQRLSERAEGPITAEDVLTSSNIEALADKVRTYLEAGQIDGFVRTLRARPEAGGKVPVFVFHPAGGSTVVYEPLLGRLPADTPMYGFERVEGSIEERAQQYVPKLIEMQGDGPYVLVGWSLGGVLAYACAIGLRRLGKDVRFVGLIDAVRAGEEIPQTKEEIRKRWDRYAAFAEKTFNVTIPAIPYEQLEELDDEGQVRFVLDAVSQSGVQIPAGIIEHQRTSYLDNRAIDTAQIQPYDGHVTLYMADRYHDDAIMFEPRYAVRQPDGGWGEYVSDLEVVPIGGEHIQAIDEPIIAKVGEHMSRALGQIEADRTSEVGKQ

Structure (SMILES) | inhibition at 13 µM (Pks13 [1]) | inhibition at 13 µM (Pks13 [2])
CC(C)(O)c1cnn(C(=O)N2CCC(C(C)(C)C)CC2)n1 [AA692-(2,4), AA692] | 0% | 18%
CC(C)(O)c1cnn(C(=O)N2CCCCC2)n1 [AA702] | – | 0%
